ChEMBL document CHEMBL5505995, “Discovery of novel urea derivatives as ferroptosis and autophagy inducer for human colon cancer treatment” (Eur J Med Chem, 2024)
Calls of active or inactive are those of the source. The rule behind the calls is not given here.

Columns and labels:
[1] = tested on: HT-29; experiment: Antiproliferative activity against human HT-29 cells assessed as inhibition of cell growth incubated for 48 hrs in presence of autophagy inhibitor Spautin-1 by MTT assay; assay type: functional, cell-based
[2] = tested on: HT-29; experiment: Induction of ferroptosis in human HT-29 cells assessed as increase in intracellular lipid peroxidation accumulation incubated for 48 hrs in presence of autophagy inhibitor 3-methyladenine by C11 BODIPY 581/591 staining based flow cytometry; assay type: functional, cell-based
[3] = tested on: HT-29; experiment: Induction of ferroptosis in human HT-29 cells assessed as increase in mitochondrial membrane density incubated for 48 hrs in presence of ferroptosis inhibitor deferoxamine by transmission electron microscopic analysis; assay type: functional, cell-based
[4] = tested on: HT-29; experiment: Induction of ferroptosis in human HT-29 cells assessed as increase in intracellular lipid peroxidation accumulation incubated for 48 hrs in presence of ROS scavenger NAC by C11 BODIPY 581/591 staining based flow cytometry; assay type: functional, cell-based
[5] = tested on: HT-29; experiment: Induction of ferroptosis in human HT-29 cells assessed as decrease in GPX4 expression incubated for 48 hrs by Western blotting analysis; assay type: functional, cell-based
[6] = tested on: HT-29; experiment: Antiproliferative activity against human HT-29 cells assessed as inhibition of cell growth incubated for 48 hrs in presence of ROS scavenger NAC by MTT assay; assay type: functional, cell-based
[7] = tested on: HT-29; experiment: Induction of ferroptosis in human HT-29 cells incubated for 48 hrs by MTT assay; assay type: functional, cell-based
[8] = tested on: HT-29; experiment: Induction of cell cycle arrest in human HT-29 cells assessed as […] of CDK1 expression at 0.5 to 4 uM incubated for 48 hrs by Western blotting analysis; assay type: functional, cell-based; settings: dose 0.5-4 µM
[9] = tested on: HeLa; experiment: Antiproliferative activity against human HeLa cells assessed as inhibition of cell growth incubated for 48 hrs by MTT assay; assay type: functional, cell-based
[10] = tested on: HT-29; experiment: Induction of ferroptosis in human HT-29 cells assessed as decrease in GPx level incubated for 48 hrs in presence of ferroptosis inhibitor CPX; assay type: functional, cell-based
[11] = tested on: HT-29; experiment: Induction of autophagy in human HT-29 cells assessed as increase in MDC positive cells incubated for 48 hrs by MDC staining based flow cytometric analysis; assay type: functional, cell-based
[12] = tested on: HT-29; experiment: Induction of ferroptosis in human HT-29 cells assessed as fusion of mitochondrial cristae incubated for 48 hrs by transmission electron microscopic analysis; assay type: functional, cell-based
[13] = tested on: K562; experiment: Antiproliferative activity against human K562 cells assessed as inhibition of cell growth incubated for 48 hrs by MTT assay; assay type: functional, cell-based; settings: K562, 48 h
[14] = tested on: Cell membrane; experiment: Induction of mitochondrial membrane potential loss in human HT-29 cells assessed as increase in green fluorescence incubated for 48 hrs by JC-1 staining based flow cytometry; assay type: cell membranes
[15] = tested on: HT-29; experiment: Induction of ferroptosis in human HT-29 cells assessed as increase in intracellular malondialdehyde accumulation incubated for 48 hrs in presence of autophagy inhibitor 3-methyladenine; assay type: functional, cell-based
[16] = tested on: HT-29; experiment: Induction of ferroptosis in human HT-29 cells assessed as decrease in intracellular GSH level incubated for 48 hrs in presence of ferroptosis inhibitor deferoxamine; assay type: functional, cell-based
[17] = tested on: HT-29; experiment: Induction of ferroptosis in human HT-29 cells assessed as increase in intracellular lipid peroxidation accumulation incubated for 48 hrs in presence of ferroptosis inhibitor CPX by C11 BODIPY 581/591 staining based flow cytometry; assay type: functional, cell-based

IC50 [9]: 6.18 µM | IC50 [13]: 4.92 µM | Activity [14]: Dose-Dependent Effect
SMILES: COc1ccc2c(c1)NCCN2C(=O)NCCCl
Activity [1]: inactive | Activity [2]: Active | Activity [3]: inactive | Activity [4]: inactive | Activity [5]: Dose-Dependent Effect | Activity [6]: inactive | Activity [7]: Active | Activity [8]: Active | Activity [10]: inactive | Activity [11]: Dose-Dependent Effect | Activity [12]: Active | Activity [15]: Active | Activity [16]: inactive | Activity [17]: inactive
